From the METLIN SMRT retention time set (Domingo-Almenara et al. 2019)

Assay: gradient 5% acetonitrile 3 min, to 50% in 2 min, to 85% in 15 min, held 3 min, 100 µL/min
Conditions: column: Zorbax Extend-C18 2.1 x 50 mm; eluents: water / acetonitrile, 0.1% formic acid
Procedure, shortened: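 Pure standards were run in mixtures of ~100 molecules by HPLC coupled to a quadrupole time-of-flight mass spectrometer. The column was a Zorbax Extend-C18 (2.1 × 50 mm, 1.8 μm) at 100 μL/min, with water and acetonitrile each containing 0.1% formic acid, in positive and negative ionization mode. Dead and dwell volumes were 40 μL and 900 μL. Retention time was taken from computationally picked adduct peaks, each manually inspected, with data collected over 3 months.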

| SMILES | RP-LC retention time |
| --- | --- |
| COc1ccc(-c2noc(NCC3CCCO3)n2)cc1 (configuration not stated) | 765 s |
| CCc1ccc(N2CC(c3noc(-c4cc(OC)cc(OC)c4)n3)CC2=O)cc1 (configuration not stated) | 1100 s |
| Cc1cccc(N2CCN(Cc3nc4nc(C)cc(N(C)C)n4n3)CC2)c1 | 634 s |
| O=C(NC1CCCCC1)N1CCC(c2noc(-c3ccccc3)n2)C1 (configuration not stated) | 939 s |
| COc1ccc2c(c1)C1(CCN(C(=O)c3ccc(OC)c(OC)c3)C1)C(=O)N2 (configuration not stated) | 674 s |
| Cc1cccc(-c2noc(Cn3ccn(-c4ccccc4)c(=O)c3=O)n2)c1 | 838 s |
| NC(=O)C1CCN(C(=O)CN2CCN(c3ccccc3F)CC2)CC1 | 580 s |
| NC(=O)c1ccc2c(c1)CCCN2C(=O)c1cccc(Cl)c1 | 724 s |
| O=S(=O)(NCCC1=CCCCC1)c1ccccc1-c1nc(-c2cccc(F)c2)no1 | 1400 s |
| CCOc1ccc(NC(=O)NCCn2c(C(F)(F)F)nc3cccnc32)cc1 | 756 s |
| CCOC(=O)c1cccc(NC2=NS(=O)(=O)c3ccccc32)c1 | 839 s |
| Cc1c(Cl)cccc1NC(=O)Cn1cnc2c(sc3nc(-c4ccccc4)ccc32)c1=O | 1070 s |
| O=C(Nc1ccc(F)cc1F)c1c(O)c2cccnc2n(-c2ccc(F)cc2)c1=O | 957 s |
| Cc1cnc(-c2cc(N3CCN(C(=O)CCS(C)(=O)=O)CC3)ncc2Cl)c(C)c1 | 728 s |
| CCCc1sc(Nc2ccccc2OCC)nc1-c1ccc(Cl)c(Cl)c1 | 1030 s |
| O=c1c2sccc2n(Cc2nc(-c3ccc(F)c(Br)c3)no2)c(=O)n1-c1ccccc1 | 961 s |
| O=C(Cn1nc(C(=O)N2CCCC2)c2ccccc21)N1CCC(N2CCCCC2)CC1 | 581 s |
| O=C(NC1CCCCC1)C1CCCN(c2ccnc(-c3ccc(F)cc3)n2)C1 (configuration not stated) | 695 s |
| CNC(=O)N1CCCC(c2cccc(C(=O)NCc3cccc(Br)c3)c2)C1 (configuration not stated) | 819 s |
| Cn1c(=O)c2cc(C(=O)N3CCN(c4ccc(Cl)cc4)CC3)sc2n(C)c1=O | 862 s |
| Cc1oc(-c2[nH]ncc2C(=O)N(C)C)cc1S(=O)(=O)N1CCN(c2ccccc2)CC1 | 746 s |
| COc1ccc(-c2nc(-c3cn(-c4cccc(Cl)c4)nn3)no2)cc1OC | 1040 s |
| Cc1noc(-c2nc(Cc3cccc(F)c3)no2)n1 | 940 s |

| SMILES | RP-LC retention time |
| --- | --- |
| COc1ccc(OC)c(NC(=O)N2CCN(Cc3cn(C)c4ccccc34)CC2)c1 | 664 s |
| CCN(CC)C(=O)c1ccc(O)c(OC)c1 | 718 s |
| CN(C)c1cccc(-c2nc(C3CC(=O)N(c4ccc(Cl)cc4)C3)no2)c1 (configuration not stated) | 1110 s |
| Cc1ccc2nc(-c3ccc(NC(=O)Cn4cnc(C)cc4=O)cc3)sc2c1 | 762 s |
| O=C(Nc1cnc(N2CCOCC2)nc1)c1cccc(Br)c1 | 828 s |
| Cc1cc(-c2cc(S(=O)(=O)NCCCOC(C)C)c(C)s2)n[nH]1 | 770 s |
| O=C(Nc1ccc(-c2nc(-c3ccccc3)no2)cc1)c1ccc(Br)o1 | 1180 s |
| N#Cc1cccc(-c2nc(-c3ccc4c(c3)nnn4CCN3CCCCC3)no2)c1 | 678 s |
| CCS(=O)(=O)N1CC(=O)N(Cc2ccc(Cl)cc2)C(C)(C(=O)NC2CCCCCCC2)C1 (configuration not stated) | 1040 s |
| CN1C(=O)CCCCC1C(=O)NCc1cccs1 (configuration not stated) | 637 s |
| COc1ccc(-c2nnc3sc(-c4ccncc4)nn23)cc1OC | 710 s |
| COc1ccccc1-c1nnc(NC(=O)COc2ccccc2)o1 | 707 s |
| CC(C)NC(=O)Cn1ccn2nc(-c3ccc(F)cc3)c(CO)c2c1=O | 682 s |
| O=S(=O)(Nc1cc(-c2ccoc2)no1)c1ccc(F)cc1F | 806 s |
| O=C(Cn1c(C(F)(F)F)nc2cc3c(cc21)OCCO3)NCC1CCCO1 (configuration not stated) | 693 s |
| CCOC(=O)c1c(C)oc2nc(C)nc(Nc3ccc(C)c(F)c3)c12 | 1360 s |
| COc1ccc(CN(C(=O)c2oc3ccccc3c2C)C2CCS(=O)(=O)C2)cc1OC (configuration not stated) | 826 s |
| CCc1noc(NC(C)=O)c1-c1ccc(C)c(S(=O)(=O)Nc2ccc(F)cc2Cl)c1 | 872 s |
| C=CCN1C(=O)C(C)(C)COc2cc(NC(=O)c3cccc(OC)c3OC)ccc21 | 943 s |
| CN1CCN(CCCNC(=O)c2ccc(NC(=O)C3=CSCCO3)cc2)CC1 | 876 s |
| Cc1ccc(-c2cc(C(N)=O)[nH]n2)c(C)c1 | 668 s |
| Cc1nnc(NC(=O)COc2ccc3ccccc3c2)s1 | 742 s |
| CCCC(=O)Nc1nc(-c2ccc3c(c2)N(C)C(=O)CO3)c(C)s1 | 856 s |

| SMILES | RP-LC retention time |
| --- | --- |
| COc1cccc(-c2noc(Cn3ccn(-c4cc(C)ccc4C)c(=O)c3=O)n2)c1 | 911 s |
| CCc1ccc(CNC(=O)C2CCCN(c3nc4c(s3)c(C)nn4-c3ccc(C)cc3)C2)cc1 (configuration not stated) | 1260 s |
| COCCn1cc2c3c(cccc31)CN(C(=O)NCc1ccc(F)cc1)CC2 | 842 s |
| CCOC(=O)N1CCN(C(=O)c2cc(S(=O)(=O)N3CCOCC3)ccc2OC)CC1 | 636 s |
| O=C(c1cccs1)N1CCC2(CC1)NC(=O)N(Cc1cccc(Cl)c1)C2=O | 810 s |
| O=C(NCc1ccco1)c1ccc(NC(=O)C2CC2)cc1N1CCCCCC1 | 584 s |
| O=C(Nc1nc2cccc(-c3ccc(CN4CCS(=O)(=O)CC4)cc3)n2n1)C1CC1 | 687 s |
| CCn1c(=O)c(NCc2cccc(Cl)c2)nc2ccncc21 | 649 s |
| Cc1cccc(NC(=O)Cn2nc3c(Oc4ccc(Cl)cc4)nccn3c2=O)c1 | 930 s |
| CCn1cc(-c2ccc(Cl)cc2)cc1C(=O)N1CCC(N2CCCCC2)CC1 | 713 s |
| O=C(Nc1nccs1)C1CCN(C(=O)Cc2c(F)cccc2Cl)CC1 | 717 s |
| COCCc1noc(-c2cnc3nc(C)ccc3c2NCc2cccc(Cl)c2)n1 | 711 s |
| COc1ccc(C2C(C)C(=O)C(C)C(c3ccc(OC)cc3)N2N=O)cc1 (configuration not stated) | 1000 s |
| O=C(NCC1CCCCC1)C1CCN(c2nnc3ccccn23)CC1 | 628 s |
| COc1ccc(Cl)cc1C(=O)Nc1ccc2c(c1)C(=O)NCCO2 | 951 s |
| CCOc1ccc2nc(Nc3nc(C)cc(C(F)(F)F)n3)nc(C)c2c1 | 753 s |
| CC1=C(c2ccccc2)S(=O)(=O)N=C1N1CCN(c2ccccn2)CC1 | 632 s |
| Cc1cc(N2CCOCC2)nc(N2CCN(S(=O)(=O)c3ccc(Br)cc3)CC2)n1 | 718 s |
| CCCn1nc(C)cc1CN(C)C(=O)Cn1nc2n(c1=O)CCC(N)CC2 (configuration not stated) | 561 s |
| CC(C)(C)c1cc(NCc2ccccn2)n2ncc(-c3ccc(Cl)cc3)c2n1 | 841 s |
| Cc1ccc(N2C(=O)CCS2(=O)=O)cc1S(=O)(=O)Nc1cccc2cccnc12 | 808 s |
